Assays:
HER-2 = target: T1, HER-2 (Homo sapiens, UniProt P04626); experiment: HER-2 inhibitory assay (ADP-Glo kinase assay); format: biochemical; conditions: read-out: HER-2 inhibition IC50 ± SEM
T1 construct: purchased Abcam ab60866
Description: The results are presented as IC50 values. Lapatinib served as the reference medication. Appendix A describes more experimental details.
Lapatinib functioned as the reference drug. […]
4.2.5. HER-2 inhibitory assay
The ADP-Glo™ Kinase Assay was used for kinase activity detection, related kinases information:
HER-2 (ab60866, Abcam), with a concentration of 100 ng/mL. Target compounds were dissolved in DMSO to obtain drug solutions with different concentrations, and the compound concentrations in the final reaction system (100 μL) were 1 nM, 20 nM, 40 nM, 80 nM, and 100 nM, respectively. 10μL of the solution containing compounds was transferred to a 96-well plate, then added 40 μL of 1 × kinase buffer (50 mM HEPES, pH 7.5) to each well, and mixed the mixture in the 96-well plate on a shaker for 10 min. Next, added 25 μL of ADP-Glo™ reagent to the above wells, mixed and incubated for another 40 min. Distributed 10 μL kinase detection reagent to the reaction and incubated for 30 min. Finally, the full-wavelength microplate reader was used to record the OD value.
4.3. Statistical analysis
Computerized Prism 5 program was used to statistically analyzed data using one-way ANOVA test followed by Tukey’s as post ANOVA for multiple comparison at P ≤.05. Data were presented as […]

BRAF^V600E = BRAF^V600E (Mus musculus, UniProt P28028, V585E); experiment: BRAF^V600E inhibitory assay
Sequence of BRAF^V600E (P28028 whole entry V585E): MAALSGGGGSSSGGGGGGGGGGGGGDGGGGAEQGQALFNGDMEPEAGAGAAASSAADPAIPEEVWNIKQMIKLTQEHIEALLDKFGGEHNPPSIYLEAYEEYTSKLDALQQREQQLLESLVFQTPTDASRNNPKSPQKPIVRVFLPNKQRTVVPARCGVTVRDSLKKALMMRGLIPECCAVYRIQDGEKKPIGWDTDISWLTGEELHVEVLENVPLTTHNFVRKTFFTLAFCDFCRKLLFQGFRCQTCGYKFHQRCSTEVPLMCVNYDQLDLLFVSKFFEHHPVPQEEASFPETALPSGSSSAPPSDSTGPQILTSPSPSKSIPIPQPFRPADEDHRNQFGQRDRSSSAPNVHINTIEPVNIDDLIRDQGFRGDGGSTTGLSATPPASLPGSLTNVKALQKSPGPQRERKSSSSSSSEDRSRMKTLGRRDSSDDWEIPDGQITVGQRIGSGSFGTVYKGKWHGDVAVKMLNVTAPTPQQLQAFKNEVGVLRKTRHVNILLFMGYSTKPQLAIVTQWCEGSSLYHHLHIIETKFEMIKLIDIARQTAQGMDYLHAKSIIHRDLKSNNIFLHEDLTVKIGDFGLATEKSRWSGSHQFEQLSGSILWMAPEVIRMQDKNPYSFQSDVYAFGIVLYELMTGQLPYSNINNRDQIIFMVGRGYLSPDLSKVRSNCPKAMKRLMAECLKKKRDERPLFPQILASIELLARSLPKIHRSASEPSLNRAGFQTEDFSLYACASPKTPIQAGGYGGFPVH

colon cancer (HT-29) = experiment: Antiproliferative assay, HT-29; format: cell-based; conditions: Homo sapiens; HT-29 colon cancer cell line; read-out: Antiproliferative activity IC50 ± SEM (nM) HT-29
Description: (§1) 4.2.2. Assay for antiproliferative effect
(§2) To explore the antiproliferative potential of compounds propidium iodide fluorescence assay was performed using different cell lines such as Panc-1 (pancreas cancer cell line), MCF-7 (breast cancer cell line), HT-29 (colon cancer cell line) and A-549 (epithelial cancer cell line), respectively. To calculate the total nuclear DNA, a fluorescent dye (propidium iodide, PI) is used which can attach to the DNA, thus offering a quick and precise technique. PI cannot pass through the cell membrane and its signal intensity can be considered as directly proportional to quantity of cellular DNA. Cells whose cell membranes are damaged or have changed permeability are counted as dead ones. The assay was performed by seeding the cells of different cell lines at a density of 3000-7500 cells/well (in 200μl medium) in culture plates followed by incubation for 24h at 37 °C in humidified 5%CO2/95% air atmospheric conditions. The medium was removed; the compounds were added to the plates at 10 μM concentrations (in 0.1% DMSO) in triplicates, followed by incubation for 48h. DMSO (0.1%) was used as control. After incubation, medium was removed followed by the addition of PI (25 μl, 50μg/mL in water/medium) to each well of the plates. At -80 °C, the plates were allowed to freeze for 24 h, followed by thawing at 25 °C. A fluorometer (Polar-Star BMG Tech) was used to record the readings at excitation and emission wavelengths of 530 and 620 nm for each well. The percentage cytotoxicity of compounds was calculated using the following formula:
(§3) Where ATC= Absorbance of treated cells and AC= Absorbance of control. Erlotinib was used as positive control in the assay. […]

[1] = tested on: pancreatic cancer (Panc-1); experiment: Antiproliferative assay, Panc-1; format: cell-based; conditions: Homo sapiens; Panc-1 pancreatic cancer cell line; read-out: Antiproliferative activity IC50 ± SEM (nM) Panc-1
Description: as §1, §2, §3

breast cancer (MCF-7) = experiment: Antiproliferative assay, MCF-7; format: cell-based, human; conditions: Homo sapiens, MCF7; MCF-7 breast cancer cell line; read-out: Antiproliferative activity IC50 ± SEM (nM) MCF-7
Description: as §1, §2, §3

[2] = tested on: four human cancer cell lines (A-549, MCF-7, Panc-1, HT-29); experiment: Antiproliferative assay, average over four cancer cell lines (GI50); format: cell-based; conditions: for GI50: Homo sapiens, GI50 = mean IC50 against the four cancer cell lines; for Times less efficient than 5a (GI50): ratio of GI50 versus 5a; for Potency reduction fold compared to 5h (GI50): ratio of GI50 versus 5h
Description: as §1
To explore the antiproliferative potential of compounds propidium iodide fluorescence assay was performed using different cell lines such as Panc-1 (pancreas cancer cell line), MCF-7 (breast cancer […]
calculate the total nuclear DNA, a fluorescent dye (propidium iodide, PI) is used which can attach to the DNA, thus offering a quick and precise technique. PI cannot pass through the cell membrane and its signal intensity can be considered as directly proportional to quantity of cellular DNA. Cells whose cell membranes are damaged or have changed permeability are counted as dead ones. The assay was performed by seeding the cells of different cell lines at a density of 3000-7500 cells/well (in 200μl […]
atmospheric conditions. The medium was removed; the compounds were added to the plates at 10 μM concentrations (in 0.1% DMSO) in triplicates, followed by incubation for 48h. DMSO (0.1%) was used as control. After incubation, medium was removed followed by the addition of PI (25 μl, 50μg/mL in water/medium) to each well of the plates. At -80 °C, the plates were allowed to freeze for 24 h, followed by thawing at 25 °C. A fluorometer (Polar-Star BMG Tech) was used to record the readings at excitation and emission wavelengths of 530 and 620 nm for each well. The percentage cytotoxicity of compounds was calculated using the following formula:
Where ATC= Absorbance of treated cells and AC= Absorbance of control. […]
positive control in the assay. […]

EGFR = EGFR (Homo sapiens, UniProt P00533); experiment: EGFR-TK inhibitory assay
Sequence of EGFR (P00533 669-1210): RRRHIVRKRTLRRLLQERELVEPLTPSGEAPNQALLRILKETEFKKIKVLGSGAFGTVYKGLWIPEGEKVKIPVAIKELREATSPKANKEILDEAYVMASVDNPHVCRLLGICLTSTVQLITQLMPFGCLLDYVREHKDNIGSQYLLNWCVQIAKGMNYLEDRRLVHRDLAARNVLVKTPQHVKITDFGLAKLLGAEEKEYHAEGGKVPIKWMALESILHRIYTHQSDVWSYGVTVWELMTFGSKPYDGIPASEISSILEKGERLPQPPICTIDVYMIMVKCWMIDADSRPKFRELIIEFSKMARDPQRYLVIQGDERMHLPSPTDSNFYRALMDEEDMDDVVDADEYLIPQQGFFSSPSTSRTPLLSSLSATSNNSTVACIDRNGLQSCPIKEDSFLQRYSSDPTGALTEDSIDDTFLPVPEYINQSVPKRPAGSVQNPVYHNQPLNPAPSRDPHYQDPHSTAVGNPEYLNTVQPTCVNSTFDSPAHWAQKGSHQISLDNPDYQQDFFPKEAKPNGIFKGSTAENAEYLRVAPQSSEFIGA
Description: Baculoviral expression vectors including pBlueBacHis2B and pFASTBacHTc were used separately
upstream to the EGFR sequence comprised a sequence that encoded (His)6. Sf-9 cells were infected for 72h for protein expression. The pellets of Sf-9 cells were solubilized in a buffer containing sodium vanadate (100 μM), aprotinin (10 μg/mL), triton (1%), HEPES buffer(50mM), ammonium molybdate (10 μM), benzamidine HCl (16 μg/mL), NaCl (10 mM),leupeptin (10 μg/mL) and pepstatin (10 μg/mL) at 0°C for 20 min at pH 7.4, followed by centrifugation for 20 min. To eliminate the nonspecifically bound material, a Ni-NTA super flow packed column was used to pass through and wash the crude extract supernatant first with 10mM and then with 100 mM imidazole. Histidine-linked proteins were first eluted with 250 and then with 500 mM imidazole subsequent to dialysis against NaCl (50 mM), HEPES (20 mM), glycerol (10%) and 1 μg/mL each of aprotinin, leupeptin and pepstatin for 120 min. The purification was performed either at 4 °C or on ice. To record autophosphorylation level, EGFR kinase assay was carried out on the basis of DELFIA/Time-Resolved Fluorometry. The compounds were first dissolved in DMSO absolute, subsequent to dilution to appropriate concentration using HEPES (25 mM) at pH 7.4. Each compound (10 μL) was incubated with recombinant enzyme (10 μL, 5 ng for EGFR, 1:80 dilution in 100 mM HEPES) for 10 min at 25 °C, subsequent to the addition of 5X buffer (10 μL, containing 2 mM MnCl2, 100 μM Na3VO4, 20 mM HEPES and 1 mM DTT) and ATP-MgCl2 (20 μL, containing 0.1 mM ATP and 50 mM MgCl2) and incubation for 1h. The negative and positive controls were included in each plate by the incubation of enzyme either with or without ATP-MgCl2. The liquid was removed after incubation and the plates were washed thrice using a wash buffer. The Europium-tagged antiphosphotyrosine antibody (75 μL, 400 ng) was added to each well followed by incubation of 1h
and then washing of the plates using buffer. The enhancement solution was added to each well and
autophosphorylation percentage inhibition by compounds was calculated using the following
calculated. The majority of signals detected by antiphosphotyrosine antibody were from EGFR because the enzyme preparation contained low impurities.

[3] = Cell viability assay (MTT) on MCF-10A normal cell line; format: cell-based; conditions: human, MCF-10A mammary gland epithelial normal cells, MCF-10A cells, 50 μM of each compound, four days of incubation
Description: The human mammary gland epithelial (MCF-10A) normal cell line was used to examine the viability effects of new derivatives 5a–l using the MTT test.[33,34] Refer to Appendix A for more details.
The human mammary gland epithelium (MCF-10A) normal cell line was employed to evaluate the viability effects of novel derivatives 5a–l. The cell viability of 5a–l was assessed via the MTT assay following four days of incubation with 50 μM of each compound on MCF-10A cells.[33,34] […]
4.2. Biological evaluation
4.2.1 Cell Viability assay (MTT assay)
MTT assay was performed to investigate the effect of the synthesized compounds on mammary epithelial cells (MCF-10A). The cells were propagated in medium consisting of Ham's F-12 medium/ Dulbecco's modified Eagle's medium (DMEM) (1:1) supplemented with 10% foetal calf serum, 2 mM glutamine, insulin (10 μg/mL), hydrocortisone (500 ng/mL) and epidermal growth factor (20 ng/mL). Trypsin ethylenediamine tetra acetic acid (EDTA) was used to passage the cells after every 2-3 days. 96-well flat-bottomed cell culture plates were used to seed the cells at a density of 10^4 cells mL-1. The medium was aspirated from all the wells of culture plates after 24 h followed by the addition of synthesized compounds (in 200 μL medium to yield a final concentration of 0.1% (v/v) dimethyl sulfoxide) into individual wells of the plates. Four wells were designated to a single compound. The plates were allowed to incubate at 37°C for 96 h. Afterwards, the medium was aspirated and 3-[4,5-dimethylthiazol-2-yl]-2,5-diphenyltetrazolium bromide (MTT) (0.4 mg/mL) in medium was added to each well and subsequently incubated for 3 h. The medium was aspirated and 150 μL dimethyl sulfoxide (DMSO) was added to each well. The plates were vortexed followed by the measurement of absorbance at 540 nm on a microplate reader. The results were presented as inhibition (%) of proliferation in contrast to controls comprising 0.1% DMSO. […]

lung cancer (A-549) = experiment: Antiproliferative assay, A-549; format: cell-based; conditions: Homo sapiens, A549; A-549 lung cancer cell line; read-out: Antiproliferative activity IC50 ± SEM (nM) A-549
Description: as §1, §2, §3
(1 picture or pasted object on this page, not shown here)

T1 sequence (P04626 23-1255): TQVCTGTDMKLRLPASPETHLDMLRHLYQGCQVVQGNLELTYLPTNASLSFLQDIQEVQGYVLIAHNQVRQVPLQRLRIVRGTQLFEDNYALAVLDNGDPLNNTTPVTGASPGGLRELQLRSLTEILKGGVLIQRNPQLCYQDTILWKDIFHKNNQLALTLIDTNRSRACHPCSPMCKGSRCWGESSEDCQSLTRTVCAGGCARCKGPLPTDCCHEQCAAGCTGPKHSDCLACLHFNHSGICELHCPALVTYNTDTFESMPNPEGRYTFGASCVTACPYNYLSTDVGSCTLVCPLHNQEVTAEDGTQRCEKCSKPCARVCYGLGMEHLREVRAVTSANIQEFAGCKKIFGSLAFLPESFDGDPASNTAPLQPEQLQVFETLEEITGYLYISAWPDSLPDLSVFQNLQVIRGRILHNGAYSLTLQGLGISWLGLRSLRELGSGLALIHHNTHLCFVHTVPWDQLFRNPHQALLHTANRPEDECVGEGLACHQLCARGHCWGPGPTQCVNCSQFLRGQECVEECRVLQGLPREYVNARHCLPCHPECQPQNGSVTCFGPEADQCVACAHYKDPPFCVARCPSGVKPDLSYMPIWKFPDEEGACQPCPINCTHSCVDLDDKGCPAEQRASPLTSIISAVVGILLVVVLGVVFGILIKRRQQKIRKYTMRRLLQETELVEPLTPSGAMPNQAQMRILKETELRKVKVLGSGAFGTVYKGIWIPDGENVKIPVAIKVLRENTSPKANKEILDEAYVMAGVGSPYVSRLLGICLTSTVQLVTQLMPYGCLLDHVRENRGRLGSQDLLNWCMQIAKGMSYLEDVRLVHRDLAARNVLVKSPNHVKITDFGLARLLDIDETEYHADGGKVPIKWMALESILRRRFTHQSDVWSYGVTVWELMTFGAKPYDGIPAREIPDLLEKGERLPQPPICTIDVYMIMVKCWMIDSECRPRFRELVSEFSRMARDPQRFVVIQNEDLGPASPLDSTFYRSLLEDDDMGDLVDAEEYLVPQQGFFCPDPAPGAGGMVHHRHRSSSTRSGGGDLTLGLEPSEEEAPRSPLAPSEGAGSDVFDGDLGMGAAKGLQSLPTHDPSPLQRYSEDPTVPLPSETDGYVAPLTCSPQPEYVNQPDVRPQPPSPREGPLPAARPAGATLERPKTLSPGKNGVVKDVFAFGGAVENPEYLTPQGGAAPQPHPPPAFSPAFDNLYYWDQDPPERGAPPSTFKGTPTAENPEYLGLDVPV

| SMILES | IC50 (HER-2) | IC50 (BRAF^V600E) | IC50 (colon cancer (HT-29)) | IC50 [1] | IC50 (breast cancer (MCF-7)) | GI50 [2] | IC50 (EGFR) | Fold less potent than 5e, EGFR (EGFR; ratio of EGFR IC50 versus 5e) | viability at 4 days, 50 µM [3] | IC50 (lung cancer (A-549)) | Times less efficient than 5a (GI50) [2] | Potency reduction fold compared to 5h (GI50) [2] |
| --- | --- | --- | --- | --- | --- | --- | --- | --- | --- | --- | --- | --- |
| N#CC1=C(N)Oc2c(c(=O)[nH]c3ccccc23)C1c1ccccc1 (stereo not drawn) [Compound 5a, 2-Amino-5-oxo-4-phenyl-5,6-dihydro-4H-pyrano[3,2-c]quinoline-3-carbonitrile] | 36 ± 2 nM | 79 ± 5 nM | 32 ± 2 nM | 32 ± 2 nM | 27 ± 2 nM | 31 nM | 84 ± 5 nM | 1.2 fold | 92% | 32 ± 2 nM | – | – |
| Cc1ccc2[nH]c(=O)c3c(c2c1)OC(N)=C(C#N)C3c1ccccc1 (stereo not drawn) [Compound 5b, 2-Amino-9-methyl-5-oxo-4-phenyl-5,6-dihydro-4H-pyrano[3,2-c]quinoline-3-carbonitrile] | – | – | 50 ± 5 nM | 48 ± 4 nM | 44 ± 4 nM | 48 nM | – | – | 90% | 48 ± 4 nM | 1.5 fold | – |
| COc1ccc2[nH]c(=O)c3c(c2c1)OC(N)=C(C#N)C3c1ccccc1 (stereo not drawn) [Compound 5c, 2-Amino-9-methoxy-5-oxo-4-phenyl-5,6-dihydro-4H-pyrano[3,2-c]quinoline-3-carbonitrile] | – | – | 70 ± 6 nM | 68 ± 6 nM | 59 ± 5 nM | 66 nM | – | – | 91% | 66 ± 6 nM | 2.1 fold | 2.5 fold |
| Cc1ccc2c3c(c(=O)[nH]c2c1)C(c1ccccc1)C(C#N)=C(N)O3 (stereo not drawn) [Compound 5d, 2-Amino-8-methyl-5-oxo-4-phenyl-5,6-dihydro-4H-pyrano[3,2-c]quinoline-3-carbonitrile] | 39 ± 2 nM | 83 ± 5 nM | 37 ± 3 nM | 36 ± 3 nM | 31 ± 2 nM | 35 nM | 87 ± 5 nM | – | 93% | 35 ± 3 nM | – | – |
| COc1ccc(C2C(C#N)=C(N)Oc3c2c(=O)[nH]c2ccccc32)cc1 (stereo not drawn) [Compound 5f, 2-Amino-4-(4-methoxylphenyl)-5-oxo-5,6-dihydro-4H-pyrano[3,2-c]quinoline-3-carbonitrile] | – | – | 56 ± 5 nM | 56 ± 5 nM | 50 ± 4 nM | 54 nM | – | – | 92% | 54 ± 4 nM | – | – |
| COc1ccc(C2C(C#N)=C(N)Oc3c2c(=O)[nH]c2ccc(C)cc32)cc1 (stereo not drawn) [Compound 5g, 2-Amino-4-(4-methoxylphenyl)-9-methyl-5-oxo-5,6-dihydro-4H-pyrano[3,2-c]quinoline-3-carbonitrile] | – | – | 74 ± 6 nM | 74 ± 6 nM | 67 ± 6 nM | 72 nM | – | – | 93% | 71 ± 6 nM | – | 2.6 fold |
| N#CC1=C(N)Oc2c(c(=O)[nH]c3ccccc23)C1c1ccc(Cl)cc1 (stereo not drawn) [Compound 5j, 2-Amino-4-(4-chlorophenyl)-5-oxo-5,6-dihydro-4H-pyrano[3,2-c]quinoline-3-carbonitrile] | – | – | 46 ± 4 nM | 44 ± 4 nM | 38 ± 3 nM | 43 nM | – | – | 91% | 43 ± 4 nM | – | – |
| Cc1ccc2[nH]c(=O)c3c(c2c1)OC(N)=C(C#N)C3c1ccc(Cl)cc1 (stereo not drawn) [Compound 5k, 2-Amino-9-methyl-4-(4-chlorophenyl)-5-oxo-5,6-dihydro-4H-pyrano[3,2-c]quinoline-3-carbonitrile] | – | – | 42 ± 3 nM | 42 ± 3 nM | 34 ± 3 nM | 39 nM | – | – | 93% | 39 ± 3 nM | – | – |
| COc1ccc2[nH]c(=O)c3c(c2c1)OC(N)=C(C#N)C3c1ccc(Cl)cc1 (stereo not drawn) [Compound 5l, 2-Amino-9-methoxyl-4-(4-chlorophenyl)-5-oxo-5,6-dihydro-4H-pyrano[3,2-c]quinoline-3-carbonitrile] | – | – | 63 ± 5 nM | 62 ± 5 nM | 56 ± 5 nM | 61 nM | – | – | 92% | 60 ± 5 nM | – | 2.3 fold |

From article PMC12517401, “Design, synthesis, and antiproliferative activity of new 2-amino-pyrano[3,2-c]quinoline-3-carbonitriles as potential EGFR, BRAF^V600E, and HER-2 inhibitors” (RSC Advances, 2025)
